The target in one experiment is T1, Progesterone receptor (Homo sapiens, UniProt P06401).
T1 sequence (P06401 whole entry): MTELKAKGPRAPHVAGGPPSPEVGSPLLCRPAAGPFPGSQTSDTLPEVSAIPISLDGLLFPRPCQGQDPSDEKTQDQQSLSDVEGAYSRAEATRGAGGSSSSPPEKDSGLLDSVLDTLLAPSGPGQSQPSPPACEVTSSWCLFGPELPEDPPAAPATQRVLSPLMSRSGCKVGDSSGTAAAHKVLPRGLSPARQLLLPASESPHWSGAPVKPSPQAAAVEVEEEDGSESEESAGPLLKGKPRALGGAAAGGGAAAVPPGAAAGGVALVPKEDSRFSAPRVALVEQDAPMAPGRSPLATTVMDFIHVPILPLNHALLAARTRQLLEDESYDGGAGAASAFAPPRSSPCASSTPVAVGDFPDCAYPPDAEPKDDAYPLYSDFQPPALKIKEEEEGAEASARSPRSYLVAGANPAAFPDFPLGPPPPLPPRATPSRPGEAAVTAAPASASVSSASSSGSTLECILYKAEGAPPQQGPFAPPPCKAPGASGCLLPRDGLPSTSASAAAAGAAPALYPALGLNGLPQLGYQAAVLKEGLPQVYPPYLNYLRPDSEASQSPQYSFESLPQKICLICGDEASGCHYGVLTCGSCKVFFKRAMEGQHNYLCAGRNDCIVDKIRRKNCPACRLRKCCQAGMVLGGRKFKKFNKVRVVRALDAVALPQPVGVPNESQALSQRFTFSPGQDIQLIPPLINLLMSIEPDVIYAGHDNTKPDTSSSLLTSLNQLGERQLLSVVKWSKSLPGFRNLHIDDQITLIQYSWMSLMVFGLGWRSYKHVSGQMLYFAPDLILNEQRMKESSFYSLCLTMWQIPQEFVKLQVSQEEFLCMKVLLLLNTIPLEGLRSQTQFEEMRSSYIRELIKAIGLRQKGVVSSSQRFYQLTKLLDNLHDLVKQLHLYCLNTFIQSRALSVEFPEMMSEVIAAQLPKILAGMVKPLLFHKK
The experiment is described as follows: Activation of progesterone receptor in human T47D cells at 1 uM after 20 hrs by PRE-tagged luciferase reporter gene assay. The class given is cell-based. A general note: In a reporter assay the amount or activity of a reporter protein is the signal.

Experiment [1] addresses T2, Progesterone receptor (Homo sapiens) (UniProt P06401).
T2 sequence (whole entry): T1 sequence (P06401 whole entry)
The experiment can be described thus: Activation of progesterone receptor in human T47D cells after 20 hrs by PRE-tagged luciferase reporter gene assay relative to control. The class given is cell-based.

As to `CC1(C)[C@@H](O)CC[C@]2(C)[C@@]3(C)c4[nH]c5ccccc5c4C[C@@H]3CC[C@@]12O`, on Progesterone receptor, the EC50 result is “Not Active”.

With `CO[C@H]1[C@H](O)[C@@H](O)[C@H](Oc2ccc3c4c([nH]c3c2)[C@@]2(C)[C@@H](CC[C@H]3C(C)(C)C(=O)C=C[C@@]32C)C4)O[C@@H]1CO`, the Efficacy in experiment [1] was below 1%.

In turn, `CC1(C)C(=O)C=C[C@]2(C)[C@@]3(C)c4[nH]c5ccccc5c4C[C@@H]3CC[C@@]12O` showed an Efficacy in experiment [1] below 1%.

The values above are taken from ChEMBL document CHEMBL1154793, “The lecanindoles, nonsteroidal progestins from the terrestrial fungus Verticillium lecanii 6144” (J Nat Prod, 2009).
